Earlier results as cited in paper PMC5680437 (Journal of Clinical & Translational Endocrinology, 2015).

Tests used:
[1] = subcutaneous; ref Morrow et al. [18]
[2] = test system: healthy volunteers; settings: ref Arnolds et al. [19]
[3] = 0.2 U/kg dose; ref Heise et al. [20]

Row | Substance | Time to 50% of maximal concentration within the first hour [1] [min] | AUC for glucose infusion rate (to maintain euglycemia) [2] [mg/kg] | AUC for the glucose infusion rate in the first hour [3] [mg/kg]
1 | insulin aspart | 32 | 16 | –
2 | insulin glulisine | 21 | 30 | 102.3
3 | insulin lispro | 31 | – | 83.1
